Measurements: US20250171821A1, “HIF-1 ACTIVATORS AND USES THEREOF” (Ramot at Tel-Aviv University Ltd., priority 2022, published 2025)
Read-outs that look alike come from different tables or passages of the source.

Key:
NIH/3T3 cell line [1] = assay: Collagen type 1 immunofluorescence in NIH/3T3 cells (Incucyte); assay type: cell-based, mouse
Description: (§1) Embryonic mouse fibroblast NIH/3T3 cell line (ATCC) were seeded at a concentration of 50*10^3 cells/well on 96 well glass bottom plate (P96-1.5H-N, Cellvis) for the immunofluorescence experiment and on cell culture microplate, 96 well, PS, F-Bottom (655090, greiner) for the viability experiment. The cells were cultured with Dulbecco's modified Eagle's medium (DMEM) supplemented with 10% fetal calf serum, 1% Penicillin-Streptomycin solution and 1% L-glutamine (All purchased from Rhenium). At 24 hours post seeding, cells were treated for another 48 hours by replacing them with the cell medium supplemented with a serial dilution (5-0.02 μM, factor dilution of 2) of the ML228, Daprodustat, Enarodustat, Molidustat, Vadadustat or Roxadustat molecules dissolved in DMSO. The final DMSO concentration in the cell medium was 0.01%. Cells were maintained in an incubator at 37° C. in a humidified atmosphere containing 5% CO2.
At 48 hours post treatment with either Daprodustat, Enarodustat, Molidustat, Vadadustat or Roxadustat, cells were fixed for 10 minutes together with their media with 8% paraformaldehyde (PFA, Electron Microscopy Sciences) dissolved in phosphate-buffered saline (PBS, Invitrogen) to a final concentration of 4% PFA, without any wash to avoid cells detachment from the glass. Cells were briefly washed four times with ice-cold PBS to remove the PFA and kept overnight at 4° C. The following day, a blocking solution which contains 1.5% Bovine Serum Albumin (Sigma Aldrich) dissolved in PBS was applied for 30 minutes, followed by an overnight incubation at 4° C. with recombinant rabbit anti-mouse Collagen-I 1° antibody (primary Ab) [EPR24331-53] (ab270993, Abcam), dissolved in the blocking solution (1:1000 dilution). The following day, cells were washed for 3 times with PBS (5 minutes each), followed by immunostaining with goat anti-rabbit IgG H&L (Alexa Fluor® 488) 2° antibody (secondary Ab) (ab150077, Abcam) dissolved in blocking solution (1:1000 dilution). Cells were washed again for 3 times with PBS (5 minutes each), stained for 30 minutes with DRAQ5™ (ab108410, Abcam) for nuclei staining dissolved in PBS (1:1000 dilution), and washed once again with PBS. For the ML228 experiment, cells were washed with PBS before applying 4% PFA dissolved in PBS. Then, fixed cells were additionally permeabilized with 0.2% Triton™ X-100 (Merck) dissolved in PBS, additionally stained with Phalloidin-Atto 594 (51927, Sigma Aldrich) for F-Actin staining for 1 hour (1:250 dilution) together with the aforementioned secondary antibody, followed by 10 minutes incubation with DAPI staining solution (ab228549, Abcam) for nuclei staining dissolved in PBS (1:1000 dilution).
Images were taken using a ZEISS LSM 900 in wide-field or in the LSM confocal detection mode (ML228 experiment), using Zen 3.1. Fluorescence readouts were obtained at excitation/emission: 353/465 nm (DAPI), 493/517 nm (Collagen-I), 590/618 (F-Actin) and 647/683 nm (DRAQ5) using a Plan-Apochromat 20×/0.8 M27 objective.
Image acquisition and quantification were performed by Incucyte SX5 (Sartorius) using software version 2022B Rev2. A standard scan was done for 9 images per well using 20× objective, 2 optical modules (green at excitation/emission of 453-485 nm/494-533 nm in 300 msec acquisition time, and near-IR at excitation/emission of 648-674 nm/685-756 nm in 400 msec acquisition time, including Phase channel) following immunofluorescence protocol. For the image analysis, 2-6 replicates per condition were used. Using the Basic Analyzer mode, “Phase Object Confluence (%)” was acquired using the Phase channel. This measurement is the percentage of the image area occupied by cells. “Total Collagen-I Integrated Intensity Per Image (GCU×μm^2/Image)” was acquired using the green optical module. GCU stands for Green calibrated Unit, while this measurement is the total sum of the Collagen-I objects' fluorescent intensity in the image. “#Cells (Per image)” was acquired by the near-IR optical module. […]

fibroblasts = assay: Cell-Titer assay of cellular ATP levels, fibroblasts; assay type: cell-based; settings: for IC50: Homo sapiens, Fibroblast
Excerpt: Human fibroblasts were isolated from fragments of healthy masticatory oral mucosa (from the posterior hard palate) collected during periodontal surgeries. Informed consent was obtained from all patients. Shallow tissue samples (without submucosa) with a diameter of approximately 2 mm were excised using a #15C scalpel blade. Exclusion criteria for potential tissue donors were smoking, any systemic disease, pregnancy or lactation, or a history of periodontal disease. Cells were separated into connective tissue and epithelium using dispase II (Sigma-Aldrich, Rehovot, Israel) at 2 mg/mL for two hours at 37° C.
The live/dead viability assay (cat #04511-1KT-F Merck, Germany) was used according to the manufacturer's protocol. Briefly, cells were incubated in a medium supplemented with the indicated concentrations of ML228 for 48 hours. Fluorescein diacetate (6.6 μg/mL) and propidium iodide (5 μg/mL) (Merck, NJ, USA) were prepared in DMEM and added to the cells. Confocal images were captured after addition of the dyes with ZEISS LSM 900, Laser Scanning Microscope. Fluorescence readouts were obtained with ex/em of 490/515 nm and 535/617 nm for green and red, respectively. Cellular ATP levels were quantified using the cell-titer assay (Promega, WI, USA cat #G7570).

NIH/3T3 cell line [2] = assay: Alamar blue viability assay in NIH/3T3 cells; assay type: cell-based, mouse; settings: 0.31-5 μM ML228, 48 hours, p<0.0001
Description: as §1, with “Cells were maintained in an incubator at 37° C. in a humidified atmosphere containing 5% CO2.” left out
For the ML228 experiment, at 48 hours post treatment, cells were stained by replacing the cell medium with Alamar blue (Enco, Petach Tikvah, Israel) diluted 1:10 in the cell medium, and incubated for 4 hours (37° C., 5% CO2). Then, fluorescence readouts were obtained using the Spark multimode microplate reader (Tecan) at excitation/emission 540±20 nm/590±20 nm. Cell viability was calculated as the percentage difference of treated cells with ML228 relative to the control cells at 590±20 nm emission.

With `c1ccc(-c2ccc(CNc3nc(-c4ccccn4)nnc3-c3ccccc3)cc2)cc1` [ML228, N-([1,1′-Biphenyl]-4-ylmethyl)-6-phenyl-3-(2-pyridinyl)-1,2,4-triazin-5-amine] the “Collagen type 1 normalized to cells confluence vs untreated cells” value (NIH/3T3 cell line [1]; 5 μM ML228, 48 hours, p<0.05) was “reduction”, the “concentrations with significant increase of Collagen type 1 normalized to cells confluence vs untreated cells” value (NIH/3T3 cell line [1]; 48 hours, one-way ANOVA, p<0.05 to p<0.0001) was 0.31 to 2.5 µM and the IC50 (fibroblasts; fibroblasts, 48 hours, read-out: IC50 (ATP levels relative to non-treated cells)) was 679 nM. For the same molecule, the IC50 (fibroblasts; summary statement for the treated cells (fibroblasts and osteoblasts), read-out: IC50 of cellular viability of ML228-treated cells) was ~600 nM, the “metabolically active cell viability as measured by ATP levels” value (fibroblasts; fibroblasts, increasing ML228 concentrations, 48 hours) was “decrease in metabolically active cell viability” and the “viability compared to untreated cells” value (NIH/3T3 cell line [2]) was “lower viability”.
